{
  "source": "patent US20040242669A1",
  "about": "“Method of treating deficits associated with brain injury” (priority 2003, published 2004)",
  "format_in_all_cases": "in vivo, rat",
  "key": {"[1]": {"system": "animals with hypobaric hypoxia-induced amnesia", "test": "Shuttle-box active avoidance acquisition, hypobaric hypoxia-induced amnesia", "settings": "for Learners / CARs: hypobaric hypoxia; for CARs: mean ± S.E.M.", "description": "(§1) Male rats of the Sprague-Dawley strain (purchased from Charles River, Italy) weighing 280±20 g were used throughout all experiments. The animals were housed two-three to a cage under a constant light-dark cycle (lights on between 8.00 and 20.00) at 21° C. Commercial food and tap water were available ad libitum. All animals were used only once in the behavioral experiments.\n(§2) Ropinirole (ropinirole hydrochloride, SmithKline Beecham, Italy) and dihydroergocryptine (DHECP) α-dihydroergocryptine methanesulfonate, Monsanto, Italy) were dissolved in saline and injected subcutaneously (s.c.) at the dose of 0.5 and 1 mg/kg/day for 7 days. In the experiments with kainate-induced convulsions, ropinirole or DHECP were injected intravenously (i.v.) 30 min prior, and again at the same time of the intracerebroventricular (i.c.v) injection on kainic acid; Control animals received an injection of saline alone with the same procedure.\n(§3) Shuttle-box active avoidance acquisition was studied in a single session test as described in Bohus and De Wied, Endogenous Peptides and Learning and Memory Processes. Academic Press, New York, pp59-775, (1981). Briefly, the rats were trained to avoid the unconditioned stimulus (US) of a scrambled electrical foot-shock (0.20 mA) delivered through the grid floor. The conditioned stimulus (CS) was a buzzer presented for 3 s prior to the US. If no escape occurred within 20 s of CS/US presentation, the shock was terminated. A maximum of 30 conditioning trials were given with a variable intertrial interval averaging 60 s. The learning criterion was five consecutive conditioned avoidance responses (CARs). For those animals that reached the criterion in less than 30 trials, the remaining trials until 30 were considered as CARs. Indexes of avoidance behaviour were the total number of CARs and the percent number of learners per group.\n(§4) In the first experiment, the effects of ropinirole or DHECP were studied on amnesia induced by hypobaric hypoxia in rats. After a 7-day pretreatment with ropinirole, DHECP or saline, a group of animals was subjected to acute hypobaric hypoxia by means of a hypobaric chamber (Chantiers et Ateliers de Bretagne, France) causing depression to 300 mmHg (Boismare et al., Gerentology, 24, 6-13 (1978)). After 3 min in the chamber, the animals were removed and admitted for behavioral testing. Intact control rats were also introduced into the chamber but not subjected to hypobaric hypoxia."}, "[2]": {"system": "animals with hypobaric hypoxia-induced amnesia", "test": "Open field spontaneous motor activity, hypobaric hypoxia", "settings": "for Ambulation / Defecation / Grooming / Rearing: 5 min open field, mean ± S.E.M.", "description": "as §1, §2\n(§5) Spontaneous motor activity was scored in a circular open field arena as described by Weijnen and Slangen, Pituitary, Adrenal and the Brain, pp221-235 (1982). Animals were put inside a circular lit-up arena, with the bottom divided into 27 areas of equal size.\nas §4"}, "[3]": {"system": "animals with chronic brain occlusive ischemia", "test": "Shuttle-box active avoidance acquisition, chronic brain occlusive ischemia", "settings": "for CARs: chronic brain occlusive ischemia (2 months), mean ± S.E.M.", "description": "as §1\n(§6) A number of animals were subjected to a manipulation of the four major arteries of the brain with a method similar to that described by Pulsinelli et al., Ann. Neurol, 11, 491-498 (1982). Both vertebral arteries were cauterised under sodium pentobarbital anaesthesia and polyethylene cuffs PE-10 were placed loosely around the common carotid arteries without completely interrupting carotid blood flow. Two months after operation, all surviving animals showing no neurological gross abnormalities were admitted to drug treatment. Animals undergoing a sham operation were considered as controls.\nas §2\nas §3, with “Academic” for “Shuttle-box active avoidance acquisition was studied in a single session test as described in Bohus and De Wied, Endogenous Peptides and Learning and Memory Processes. Academic”\n(§7) Animals with 2-month chronic brain occlusive ischemia, were subjected to a treatment with ropinirole, DHECP or saline for 7 days. At the end of treatment, the animals were admitted to behavioral testing. Controls were those animals with sham manipulation of brain arteries."}, "[4]": {"system": "animals with chronic brain occlusive ischemia", "test": "Step-through passive avoidance, chronic brain occlusive ischemia", "settings": "for Latency: median latency to re-enter dark box, max 300 s", "description": "as §1, §6, §2, §7"}, "[5]": {"system": "animals with chronic brain occlusive ischemia", "test": "Open field spontaneous motor activity, chronic brain occlusive ischemia", "settings": "for Ambulation / Defecation / Grooming / Rearing: 5 min open field, mean ± S.E.M.", "description": "as §1, §6, §2, §5, §7"}, "[6]": {"system": "reduced glutathione in brain areas of rats subjected to hypobaric hypoxia", "test": "Brain glutathione content and redox index after hypobaric hypoxia", "settings": "for reduced glutathione content: mean ± S.E.M.", "description": "At the end of the behavioral studies, the brain of animals sacrificed by decapitation were taken and rapidly frozen for analysis. Dissection and weighing were carried out at −25° C. The frozen forebrains were immediately powered under liquid nitrogen by an electromechanical apparatus and stored at […]. The assay of reduced and oxidized glutathione by 5,5′-dithibis-(2-nitrobenzoic acid) in frozen forebrain powder was carried out within 3 h, utilizing perchloric acid and N-ethylmaleimide in presence of ethylenediamidetetraacetic acid for the extraction procedure (Tietze, Anal Biochem, 27, 502-522, (1969)).\nas §4\nAll animals used for hypobaric hypoxia induced amnesia and for chronic brain occlusive ischemia was sacrificed at the end behavioral procedure for biochemical analyses."}},
  "note": "Marks after values point to notes of the source that are not given here.",
  "data": [
    {"compound": "CC(C)C[C@H]1C(=O)N2CCC[C@H]2[C@]2(O)O[C@](NC(=O)[C@@H]3C[C@@H]4c5cccc6[nH]cc(c56)C[C@H]4N(C)C3)(C(C)C)C(=O)N12", "note": "[DHECP, α-dihydroergocryptine methanesulfonate]", "values": [
      {"measurement": "number of CARs and percent number of learners in the shuttle-box (effect of treatment, in words)", "setting": "[1]; hypobaric hypoxia-induced amnesia, summary of Table 1", "result": "increase in these behavioral parameters, however, for the latter only with the greater dose"},
      {"measurement": "Learners", "setting": "[1]; 0.5 mg/kg/day s.c. for 7 days", "result": "30^c percent"},
      {"measurement": "CARs", "setting": "[1]; 0.5 mg/kg/day s.c. for 7 days", "result": "13.0 ± 1.3^a"},
      {"measurement": "Learners", "setting": "[1]; 1 mg/kg/day s.c. for 7 days", "result": "80^d percent"},
      {"measurement": "CARs", "setting": "[1]; 1 mg/kg/day s.c. for 7 days", "result": "18.1 ± 1.2^b"},
      {"measurement": "Ambulation", "setting": "[2]; 0.5 mg/kg/day s.c. for 7 days", "result": "68.9 ± 6.6^b"},
      {"measurement": "Defecation", "setting": "[2]; 0.5 mg/kg/day s.c. for 7 days", "result": "3.4 ± 0.9"},
      {"measurement": "Grooming", "setting": "[2]; 0.5 mg/kg/day s.c. for 7 days", "result": "22.2 ± 2.3"},
      {"measurement": "Rearing", "setting": "[2]; 0.5 mg/kg/day s.c. for 7 days", "result": "16.4 ± 1.3^a,b"},
      {"measurement": "Ambulation", "setting": "[2]; 1 mg/kg/day s.c. for 7 days", "result": "73.1 ± 5.6^a,b"},
      {"measurement": "Defecation", "setting": "[2]; 1 mg/kg/day s.c. for 7 days", "result": "3.7 ± 1.3"},
      {"measurement": "Grooming", "setting": "[2]; 1 mg/kg/day s.c. for 7 days", "result": "23.3 ± 2.1"},
      {"measurement": "Rearing", "setting": "[2]; 1 mg/kg/day s.c. for 7 days", "result": "16.5 ± 1.9^b"},
      {"measurement": "ambulation and rearing (effect of treatment, in words)", "setting": "[2]; vs intact controls and saline-treated hypoxic animals", "result": "higher"},
      {"measurement": "CARs", "setting": "[3]; 0.5 mg/kg/day s.c. for 7 days", "result": "10.6 ± 1.1^a"},
      {"measurement": "CARs", "setting": "[3]; 1 mg/kg/day s.c. for 7 days", "result": "14.1 ± 1.1^a"},
      {"measurement": "Learners", "setting": "[3]; chronic brain occlusive ischemia, 0.5 mg/kg/day s.c. for 7 days", "result": "20^b percent"},
      {"measurement": "Learners", "setting": "[3]; chronic brain occlusive ischemia, 1 mg/kg/day s.c. for 7 days", "result": "10^b percent"},
      {"measurement": "cognitive parameters of the active avoidance test (effect of treatment, in words)", "setting": "[3]; chronic brain occlusive ischemia, Table 2", "result": "No statistically significant change"},
      {"measurement": "Latency", "setting": "[4]; 0.5 mg/kg/day s.c. for 7 days", "result": "46^c,d"},
      {"measurement": "Latency", "setting": "[4]; 1 mg/kg/day s.c. for 7 days", "result": "58^d"},
      {"measurement": "latency to re-enter the dark-box (effect of treatment, in words)", "setting": "[4]; Table 2", "result": "increased"},
      {"measurement": "Ambulation", "setting": "[5]; 0.5 mg/kg/day s.c. for 7 days", "result": "68.9 ± 6.6^a,e"},
      {"measurement": "Defecation", "setting": "[5]; 0.5 mg/kg/day s.c. for 7 days", "result": "3.4 ± 0.9^a"},
      {"measurement": "Grooming", "setting": "[5]; 0.5 mg/kg/day s.c. for 7 days", "result": "22.2 ± 2.3"},
      {"measurement": "Rearing", "setting": "[5]; 0.5 mg/kg/day s.c. for 7 days", "result": "16.4 ± 1.3^e"},
      {"measurement": "Ambulation", "setting": "[5]; 1 mg/kg/day s.c. for 7 days", "result": "73.1 ± 5.6^a,e"},
      {"measurement": "Defecation", "setting": "[5]; 1 mg/kg/day s.c. for 7 days", "result": "3.7 ± 1.3^a"},
      {"measurement": "Grooming", "setting": "[5]; 1 mg/kg/day s.c. for 7 days", "result": "23.3 ± 2.1"},
      {"measurement": "Rearing", "setting": "[5]; 1 mg/kg/day s.c. for 7 days", "result": "16.5 ± 1.9^e"},
      {"measurement": "ambulation and rearing (effect of treatment, in words)", "setting": "[5]; to a level similar to that of intact controls", "result": "increased"},
      {"measurement": "glutathione redox index (glutathione reduced/glutathione oxidized ratio)", "setting": "[6]; Cortex, 0.5 mg/kg", "result": 2.5},
      {"measurement": "reduced glutathione content", "setting": "[6]; Cortex, 0.5 mg/kg", "result": "2.2 ± 0.2", "unit": "mM"},
      {"measurement": "glutathione redox index (glutathione reduced/glutathione oxidized ratio)", "setting": "[6]; Cortex, 1 mg/kg", "result": 2.3},
      {"measurement": "reduced glutathione content", "setting": "[6]; Cortex, 1 mg/kg", "result": "2.5 ± 0.2", "unit": "mM"},
      {"measurement": "glutathione redox index (glutathione reduced/glutathione oxidized ratio)", "setting": "[6]; Hippocampus, 0.5 mg/kg", "result": 1.8},
      {"measurement": "reduced glutathione content", "setting": "[6]; Hippocampus, 0.5 mg/kg", "result": "2.1 ± 0.2", "unit": "mM"},
      {"measurement": "glutathione redox index (glutathione reduced/glutathione oxidized ratio)", "setting": "[6]; Hippocampus, 1 mg/kg", "result": 2.2},
      {"measurement": "reduced glutathione content", "setting": "[6]; Hippocampus, 1 mg/kg", "result": "2.4 ± 0.2", "unit": "mM"},
      {"measurement": "glutathione redox index (glutathione reduced/glutathione oxidized ratio)", "setting": "[6]; Hypothalamus, 0.5 mg/kg", "result": 2.6},
      {"measurement": "reduced glutathione content", "setting": "[6]; Hypothalamus, 0.5 mg/kg", "result": "2.8 ± 0.2", "unit": "mM"},
      {"measurement": "glutathione redox index (glutathione reduced/glutathione oxidized ratio)", "setting": "[6]; Hypothalamus, 1 mg/kg", "result": 2.8},
      {"measurement": "reduced glutathione content", "setting": "[6]; Hypothalamus, 1 mg/kg", "result": "2.8 ± 0.2", "unit": "mM"},
      {"measurement": "glutathione redox index (glutathione reduced/glutathione oxidized ratio)", "setting": "[6]; Striatum, 0.5 mg/kg", "result": 0.7},
      {"measurement": "reduced glutathione content", "setting": "[6]; Striatum, 0.5 mg/kg", "result": "1.8 ± 0.2", "unit": "mM"},
      {"measurement": "glutathione redox index (glutathione reduced/glutathione oxidized ratio)", "setting": "[6]; Striatum, 1 mg/kg", "result": 1.7},
      {"measurement": "reduced glutathione content", "setting": "[6]; Striatum, 1 mg/kg", "result": "2.5 ± 0.2", "unit": "mM"},
      {"measurement": "reduced glutathione content and glutathione redox index (effect of treatment, in words)", "setting": "[6]; cortex, hippocampus and hypothalamus, both doses", "result": "increase"},
      {"measurement": "reduced glutathione content and glutathione redox index (effect of treatment, in words)", "setting": "[6]; striatum", "result": "only with the greater dose"}
    ]}
  ]
}
